From patent US20140179795A1, “Agent for Stabilizing Acetaminophen” (priority 2010, published 2014)

Assays:
[1] = Stability under high-temperature and high-pressure conditions (121° C., 1 hour): color tone, precipitation, related substances by HPLC; type: physicochemical; parameters: key to Color tone: +++: deep brown; ++: slightly deep brown; +: light brown; ±: very little discoloration; −: no discoloration; key to Precipitation: +: visible precipitates; −: no precipitates; conditions: 1 w/v % acetaminophen, 5 w/v % xylitol, pH 5, 1-hour treatment; for Total amount of related substances (%): HPLC peak area 225 nm
Procedure: Aqueous compositions containing glycine at the concentrations shown in Table 1 below, 1 w/v % acetaminophen, 5 w/v % xylitol and phosphoric acid (q.s.) and having the pH of 5 were heat-treated at 121° C. for 1 hour, and subsequently visually observed in terms of the color tone (the degree of discoloration) and the presence of precipitates.
In addition, the concentration of acetaminophen-related substances in each aqueous composition was determined by HPLC. The HPLC conditions were as follows.
(§1) The analysis was performed using liquid chromatography as described in the purity test of acetaminophen (related substances) prescribed in the manual of the Japanese pharmacopoeia, 15th edition. That is, each solution was subjected to HPLC using an octadecyl silica gel column and a mobile phase prepared by mixing methanol and a potassium dihydrogen phosphate solution, the peak areas at the detection wavelength of 225 nm were determined by an automatic integration method, and the percentage of the summed peak areas of the related substances to the total area of all peaks (total amount of related substances (%)) was calculated.

[2] = Effects of pH on stability under extreme conditions (60° C., 21-day storage); type: physicochemical; parameters: key to Color tone: +++: deep brown; ++: slightly deep brown; +: light brown; ±: very little discoloration; −: no discoloration; key to Precipitation: +: visible precipitates; −: no precipitates; conditions: 0.56 w/v % glycine, 0.22 w/v % citric acid, 0.9 w/v % NaCl; for Total amount of related substances (%): HPLC
Procedure: as §1
Aqueous solutions with the pHs shown in Table 4 below were prepared by mixing 1 w/v % of acetaminophen, 0.56 w/v % of glycine, 0.22 w/v % of citric acid, 0.9 w/v % of NaCl, and NaOH or H3PO4 (q.s.). The aqueous solutions were autoclaved at 121° C. for 20 minutes and then stored at 60° C. for 21 days. Subsequently, the aqueous solutions were visually observed in terms of the color tone (the degree of discoloration) and the presence of precipitates. In addition, the concentration of acetaminophen-related substances in each aqueous solution was determined by HPLC.

Color tone ([1]; glycine 0 w/v %): +
Precipitation ([1]; glycine 0 w/v %): −
Total amount of related substances (%) ([1]; glycine 0 w/v %): 0.33%
Color tone ([1]; glycine 0.14 w/v %): −
Precipitation ([1]; glycine 0.14 w/v %): −
Total amount of related substances (%) ([1]; glycine 0.14 w/v %): 0.03%
Color tone ([1]; glycine 0.28 w/v %): −
Precipitation ([1]; glycine 0.28 w/v %): −
Total amount of related substances (%) ([1]; glycine 0.28 w/v %): 0.01%
Color tone ([1]; glycine 0.56 w/v %): −
Precipitation ([1]; glycine 0.56 w/v %): −
Total amount of related substances (%) ([1]; glycine 0.56 w/v %): 0%
Color tone ([2]; pH 2, 1 w/v % acetaminophen): +++
Precipitation ([2]; pH 2, 1 w/v % acetaminophen): +
Total amount of related substances (%) ([2]; pH 2, 1 w/v % acetaminophen): 12.18%
Color tone ([2]; pH 3, 1 w/v % acetaminophen): ++
Precipitation ([2]; pH 3, 1 w/v % acetaminophen): +
Total amount of related substances (%) ([2]; pH 3, 1 w/v % acetaminophen): 5.44%
Color tone ([2]; pH 4, 1 w/v % acetaminophen): ±
Precipitation ([2]; pH 4, 1 w/v % acetaminophen): +
Total amount of related substances (%) ([2]; pH 4, 1 w/v % acetaminophen): 0.8%
Color tone ([2]; pH 5, 1 w/v % acetaminophen): ±
Precipitation ([2]; pH 5, 1 w/v % acetaminophen): −
Total amount of related substances (%) ([2]; pH 5, 1 w/v % acetaminophen): 0.05%
Color tone ([2]; pH 6, 1 w/v % acetaminophen): +
Precipitation ([2]; pH 6, 1 w/v % acetaminophen): −
Total amount of related substances (%) ([2]; pH 6, 1 w/v % acetaminophen): 0.05%
Color tone ([2]; pH 7, 1 w/v % acetaminophen): ++
Precipitation ([2]; pH 7, 1 w/v % acetaminophen): −
Total amount of related substances (%) ([2]; pH 7, 1 w/v % acetaminophen): 0.06%
Color tone ([2]; pH 8, 1 w/v % acetaminophen): +++
Precipitation ([2]; pH 8, 1 w/v % acetaminophen): +
Total amount of related substances (%) ([2]; pH 8, 1 w/v % acetaminophen): 0.07%
Structure (SMILES): CC(=O)Nc1ccc(O)cc1 [acetaminophen, N-(4-hydroxyphenyl)acetamide]
